Experimental data: PubChem BioAssay (NCI)
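96-well plates; 48 h exposure; 5 concentrations. Endpoints by linear interpolation between flanking doses. Not reached: highest tested concentration assigned. At the TGI there is no net growth.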

What was measured:
Test in all cases: NCI anticancer screen, dose series, 48 h
786-0 renal = tested on: 786-0 renal
A498 renal = tested on: A498 renal
A549 NSCLC = tested on: A549 NSCLC
ACHN renal = tested on: ACHN renal
BT-549 breast = tested on: BT-549 breast
CAKI-1 renal = tested on: CAKI-1 renal
CCRF-CEM leukemia = tested on: CCRF-CEM leukemia
COLO 205 colon = tested on: COLO 205 colon
DU-145 prostate = tested on: DU-145 prostate
EKVX NSCLC = tested on: EKVX NSCLC
HCT-116 colon = tested on: HCT-116 colon
HCT-15 colon = tested on: HCT-15 colon
HL-60(TB) leukemia = tested on: HL-60(TB) leukemia
HOP-62 NSCLC = tested on: HOP-62 NSCLC
HOP-92 NSCLC = tested on: HOP-92 NSCLC
HS 578T breast = tested on: HS 578T breast
HT29 colon = tested on: HT29 colon
IGROV1 ovarian = tested on: IGROV1 ovarian
K-562 leukemia = tested on: K-562 leukemia
KM12 colon = tested on: KM12 colon
LOX IMVI melanoma = tested on: LOX IMVI melanoma
M14 melanoma = tested on: M14 melanoma
MALME-3M melanoma = tested on: MALME-3M melanoma
MCF7 breast = tested on: MCF7 breast
MDA-MB-231 breast = tested on: MDA-MB-231 breast
MDA-MB-435 = tested on: MDA-MB-435
MDA-N = tested on: MDA-N
MOLT-4 leukemia = tested on: MOLT-4 leukemia
NCI-H226 lung = tested on: NCI-H226 lung
NCI-H23 lung = tested on: NCI-H23 lung
NCI-H460 lung = tested on: NCI-H460 lung
NCI-H522 lung = tested on: NCI-H522 lung
NCI/ADR-RES ovarian = tested on: NCI/ADR-RES ovarian
OVCAR-3 ovarian = tested on: OVCAR-3 ovarian
OVCAR-4 ovarian = tested on: OVCAR-4 ovarian
OVCAR-5 ovarian = tested on: OVCAR-5 ovarian
OVCAR-8 ovarian = tested on: OVCAR-8 ovarian
PC-3 prostate = tested on: PC-3 prostate
RPMI-8226 leukemia = tested on: RPMI-8226 leukemia
RXF 393 renal = tested on: RXF 393 renal
SF-268 CNS = tested on: SF-268 CNS
SF-295 CNS = tested on: SF-295 CNS
SF-539 CNS = tested on: SF-539 CNS
SK-MEL-2 melanoma = tested on: SK-MEL-2 melanoma
SK-MEL-28 melanoma = tested on: SK-MEL-28 melanoma
SK-MEL-5 melanoma = tested on: SK-MEL-5 melanoma
SK-OV-3 ovarian = tested on: SK-OV-3 ovarian
SN12C renal = tested on: SN12C renal
SNB-19 CNS = tested on: SNB-19 CNS
SNB-75 CNS = tested on: SNB-75 CNS
SR leukemia = tested on: SR leukemia
SW-620 colon = tested on: SW-620 colon
T-47D breast = tested on: T-47D breast
TK-10 renal = tested on: TK-10 renal
U251 CNS = tested on: U251 CNS
UACC-257 melanoma = tested on: UACC-257 melanoma
UACC-62 melanoma = tested on: UACC-62 melanoma
HCC-2998 colon = tested on: HCC-2998 colon
UO-31 renal = tested on: UO-31 renal

c1ccc(NN(Cc2cnccn2)c2ccccc2)cc1
TGI (786-0 renal): > 100 µM
TGI (A498 renal): > 100 µM
TGI (A549 NSCLC): > 100 µM
TGI (ACHN renal): > 100 µM
TGI (BT-549 breast): > 100 µM
TGI (CAKI-1 renal): > 100 µM
TGI (CCRF-CEM leukemia): 51.2 µM
TGI (COLO 205 colon): > 100 µM
TGI (DU-145 prostate): > 100 µM
TGI (EKVX NSCLC): > 100 µM
TGI (HCT-116 colon): > 100 µM
TGI (HCT-15 colon): > 100 µM
TGI (HL-60(TB) leukemia): > 100 µM
TGI (HOP-62 NSCLC): > 100 µM
TGI (HOP-92 NSCLC): 89.7 µM
TGI (HS 578T breast): > 100 µM
TGI (HT29 colon): > 100 µM
TGI (IGROV1 ovarian): > 100 µM
TGI (K-562 leukemia): > 100 µM
TGI (KM12 colon): > 100 µM
TGI (LOX IMVI melanoma): > 100 µM
TGI (M14 melanoma): > 100 µM
TGI (MALME-3M melanoma): > 100 µM
TGI (MCF7 breast): > 100 µM
TGI (MDA-MB-231 breast): > 100 µM
TGI (MDA-MB-435): > 100 µM
TGI (MDA-N): > 100 µM
TGI (MOLT-4 leukemia): > 100 µM
TGI (NCI-H226 lung): > 100 µM
TGI (NCI-H23 lung): > 100 µM
TGI (NCI-H460 lung): > 100 µM
TGI (NCI-H522 lung): > 100 µM
TGI (NCI/ADR-RES ovarian): > 100 µM
TGI (OVCAR-3 ovarian): > 100 µM
TGI (OVCAR-4 ovarian): > 100 µM
TGI (OVCAR-5 ovarian): > 100 µM
TGI (OVCAR-8 ovarian): > 100 µM
TGI (PC-3 prostate): > 100 µM
TGI (RPMI-8226 leukemia): > 100 µM
TGI (RXF 393 renal): > 100 µM
TGI (SF-268 CNS): > 100 µM
TGI (SF-295 CNS): > 100 µM
TGI (SF-539 CNS): > 100 µM
TGI (SK-MEL-2 melanoma): > 100 µM
TGI (SK-MEL-28 melanoma): > 100 µM
TGI (SK-MEL-5 melanoma): > 100 µM
TGI (SK-OV-3 ovarian): > 100 µM
TGI (SN12C renal): > 100 µM
TGI (SNB-19 CNS): > 100 µM
TGI (SNB-75 CNS): > 100 µM
TGI (SR leukemia): > 100 µM
TGI (SW-620 colon): > 100 µM
TGI (T-47D breast): > 100 µM
TGI (TK-10 renal): > 100 µM
TGI (U251 CNS): > 100 µM
TGI (UACC-257 melanoma): > 100 µM
TGI (UACC-62 melanoma): > 100 µM

O=C(O)CN(CC(=O)O)C1CCCCC1N1CC(=O)OC(=O)C1 (stereo not drawn)
TGI (786-0 renal): > 100 µM
TGI (A498 renal): > 100 µM
TGI (A549 NSCLC): > 100 µM
TGI (ACHN renal): > 100 µM
TGI (BT-549 breast): > 100 µM
TGI (CAKI-1 renal): > 100 µM
TGI (CCRF-CEM leukemia): > 100 µM
TGI (COLO 205 colon): > 100 µM
TGI (DU-145 prostate): > 100 µM
TGI (EKVX NSCLC): > 100 µM
TGI (HCC-2998 colon): > 100 µM
TGI (HCT-116 colon): > 100 µM
TGI (HCT-15 colon): > 100 µM
TGI (HL-60(TB) leukemia): > 100 µM
TGI (HOP-62 NSCLC): > 100 µM
TGI (HOP-92 NSCLC): > 100 µM
TGI (HS 578T breast): > 100 µM
TGI (HT29 colon): > 100 µM
TGI (IGROV1 ovarian): > 100 µM
TGI (K-562 leukemia): > 100 µM
TGI (KM12 colon): > 100 µM
TGI (LOX IMVI melanoma): > 100 µM
TGI (M14 melanoma): > 100 µM
TGI (MALME-3M melanoma): > 100 µM
TGI (MCF7 breast): > 100 µM
TGI (MDA-MB-231 breast): > 100 µM
TGI (MDA-MB-435): > 100 µM
TGI (MDA-N): > 100 µM
TGI (MOLT-4 leukemia): > 100 µM
TGI (NCI-H226 lung): > 100 µM
TGI (NCI-H23 lung): > 100 µM
TGI (NCI-H460 lung): > 100 µM
TGI (NCI-H522 lung): > 100 µM
TGI (NCI/ADR-RES ovarian): > 100 µM
TGI (OVCAR-3 ovarian): > 100 µM
TGI (OVCAR-4 ovarian): > 100 µM
TGI (OVCAR-5 ovarian): > 100 µM
TGI (OVCAR-8 ovarian): > 100 µM
TGI (PC-3 prostate): > 100 µM
TGI (RPMI-8226 leukemia): > 100 µM
TGI (SF-268 CNS): > 100 µM
TGI (SF-295 CNS): > 100 µM
TGI (SF-539 CNS): > 100 µM
TGI (SK-MEL-2 melanoma): > 100 µM
TGI (SK-MEL-28 melanoma): > 100 µM
TGI (SK-MEL-5 melanoma): > 100 µM
TGI (SK-OV-3 ovarian): > 100 µM
TGI (SN12C renal): > 100 µM
TGI (SNB-19 CNS): > 100 µM
TGI (SNB-75 CNS): 95.5 µM
TGI (SR leukemia): > 100 µM
TGI (SW-620 colon): > 100 µM
TGI (T-47D breast): > 100 µM
TGI (TK-10 renal): > 100 µM
TGI (U251 CNS): > 100 µM
TGI (UACC-257 melanoma): > 100 µM
TGI (UACC-62 melanoma): > 100 µM
TGI (UO-31 renal): > 100 µM

Cc1ccc(Nc2nc3[nH]ccc3c(=O)[nH]2)cc1
TGI (786-0 renal): > 100 µM
TGI (A498 renal): > 100 µM
TGI (A549 NSCLC): > 100 µM
TGI (ACHN renal): > 100 µM
TGI (BT-549 breast): > 100 µM
TGI (CAKI-1 renal): > 100 µM
TGI (CCRF-CEM leukemia): > 100 µM
TGI (COLO 205 colon): > 100 µM
TGI (DU-145 prostate): > 100 µM
TGI (EKVX NSCLC): > 100 µM
TGI (HCC-2998 colon): > 100 µM
TGI (HCT-116 colon): > 100 µM
TGI (HCT-15 colon): > 100 µM
TGI (HL-60(TB) leukemia): > 100 µM
TGI (HOP-62 NSCLC): > 100 µM
TGI (HOP-92 NSCLC): > 100 µM
TGI (HS 578T breast): > 100 µM
TGI (HT29 colon): > 100 µM
TGI (IGROV1 ovarian): > 100 µM
TGI (K-562 leukemia): > 100 µM
TGI (KM12 colon): > 100 µM
TGI (LOX IMVI melanoma): > 100 µM
TGI (M14 melanoma): > 100 µM
TGI (MALME-3M melanoma): > 100 µM
TGI (MCF7 breast): > 100 µM
TGI (MDA-MB-231 breast): > 100 µM
TGI (MDA-MB-435): > 100 µM
TGI (MDA-N): > 100 µM
TGI (MOLT-4 leukemia): > 100 µM
TGI (NCI-H226 lung): > 100 µM
TGI (NCI-H23 lung): > 100 µM
TGI (NCI-H460 lung): > 100 µM
TGI (NCI-H522 lung): > 100 µM
TGI (NCI/ADR-RES ovarian): > 100 µM
TGI (OVCAR-3 ovarian): > 100 µM
TGI (OVCAR-4 ovarian): > 100 µM
TGI (OVCAR-5 ovarian): > 100 µM
TGI (OVCAR-8 ovarian): > 100 µM
TGI (PC-3 prostate): > 100 µM
TGI (RPMI-8226 leukemia): > 100 µM
TGI (RXF 393 renal): > 100 µM
TGI (SF-268 CNS): > 100 µM
TGI (SF-295 CNS): > 100 µM
TGI (SF-539 CNS): > 100 µM
TGI (SK-MEL-2 melanoma): > 100 µM
TGI (SK-MEL-5 melanoma): > 100 µM
TGI (SK-OV-3 ovarian): > 100 µM
TGI (SN12C renal): > 100 µM
TGI (SNB-19 CNS): > 100 µM
TGI (SNB-75 CNS): 49.9 µM
TGI (SR leukemia): > 100 µM
TGI (SW-620 colon): > 100 µM
TGI (T-47D breast): > 100 µM
TGI (TK-10 renal): > 100 µM
TGI (U251 CNS): > 100 µM
TGI (UACC-257 melanoma): > 100 µM
TGI (UACC-62 melanoma): > 100 µM
TGI (UO-31 renal): > 100 µM
